From PubChem BioAssay (NCI)
Where “and” joins values, the source holds several entries; their conditions need not be identical. Equal entries are not always repeated.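 Each compound was tested at five concentrations against cells in 96-well plates for 48 hours. GI50 is the concentration that inhibits growth by half. At the TGI there is no net growth.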

Assays:
Assay in all cases: NCI-60 cell line screen, 48 h
SK-MEL-2 melanoma = test system: SK-MEL-2 melanoma
KM12 colon = test system: KM12 colon
CCRF-CEM leukemia = test system: CCRF-CEM leukemia
NCI-H23 lung = test system: NCI-H23 lung
HT29 colon = test system: HT29 colon
T-47D breast = test system: T-47D breast
MALME-3M melanoma = test system: MALME-3M melanoma

Compound | GI50 (SK-MEL-2 melanoma) | TGI (SK-MEL-2 melanoma) | GI50 (KM12 colon) | TGI (KM12 colon) | GI50 (CCRF-CEM leukemia) | TGI (CCRF-CEM leukemia) | GI50 (NCI-H23 lung) | TGI (NCI-H23 lung) | GI50 (HT29 colon) | TGI (HT29 colon) | GI50 (T-47D breast) | TGI (T-47D breast) | GI50 (MALME-3M melanoma) | TGI (MALME-3M melanoma)
COC(=O)/C=C1/SC(N2N=C(c3cccs3)CC2c2ccc(F)cc2)=NC1=O (stereo not drawn) | 4.04 µM | 15.6 µM | 1.92 µM | 3.78 µM | 3 µM | 8.73 µM | 2.33 µM | 5.82 µM | 2.28 µM | 4.54 µM | 3.27 µM | 8.31 µM | 2.44 µM | 8.51 µM
O=C1Nc2ccccc2/C1=C\c1nc(C2CCN(S(=O)(=O)c3ccc(F)cc3)CC2)n2ccccc12 | 2.08 µM | 7.35 µM | – | – | > 100 µM | > 100 µM | 4.29 µM | 68.4 µM | > 100 µM | > 100 µM | 4.57 µM | > 100 µM | – | –
CCCNC(=O)c1ccc(Cl)cc1Cl | > 100 µM | > 100 µM | > 100 µM | > 100 µM | – | – | > 100 µM | > 100 µM | > 100 µM | > 100 µM | > 100 µM | > 100 µM | > 100 µM | > 100 µM
C=C(CC(=O)O)C(=O)O (tested in a mixture with another compound) | > 50 µg/mL | > 50 µg/mL | > 50 µg/mL | > 50 µg/mL | – | – | > 50 µg/mL | > 50 µg/mL | > 50 µg/mL | > 50 µg/mL | > 50 µg/mL | > 50 µg/mL | > 50 µg/mL | > 50 µg/mL
COCCN1CCN(Cc2ccc(-c3n[nH]c4c3C(=O)c3c(NC(=O)NN5CCOCC5)cccc3-4)cc2)CC1 | 0.0212 µM | 0.0556 µM | 0.0278 µM | 0.572 µM | 0.0211 µM | – | 0.0227 µM | 0.129 µM | 0.0347 µM | 0.299 µM | 0.0216 µM | – | 0.0705 µM | –
CC(C)n1nc(-c2ccc3oc(N)nc3c2)c2c(N)ncnc21 | 0.0194 µM and 0.0157 µM | 0.581 µM and 0.113 µM | 0.0222 µM and 0.0179 µM | 5.01 µM and 2.24 µM | 0.0265 µM and 0.0467 µM | > 45.6 µM | 0.0268 µM and 0.0176 µM | 8.16 µM and 2.39 µM | 0.0272 µM | 10.8 µM and 5.32 µM | < 0.01 µM | 0.016 µM and 0.0155 µM | < 0.01 µM | < 0.01 µM and 0.022 µM
COc1cc(-c2cc(/C=C/C(=O)c3ccc(Cl)c(Cl)c3)[nH]n2)cc(OC)c1OC | 13.9 µM | 34.1 µM | 3.37 µM | > 100 µM | 2.15 µM | 23.5 µM | 23.4 µM | > 100 µM | 11.5 µM | > 100 µM | 1.66 µM | 15.7 µM | 29.2 µM | > 100 µM
COc1ccc2c(Cl)cc(NC(=O)Nc3c(C)cccc3C)nc2c1 | 28.6 µM | 85 µM | 35.7 µM | > 100 µM | – | – | 76.9 µM | > 100 µM | 33.9 µM | > 100 µM | 22.5 µM | > 100 µM | 10.2 µM | 58.5 µM
Cc1ccc(C2=Nc3c(N)ncnc3NC(c3ccc4c(c3)OCO4)C2)cc1 (stereo not drawn) | – | – | 3.79 µM | 15 µM | – | – | 10.2 µM | 63.3 µM | 3.81 µM | 33.9 µM | 5.72 µM | > 100 µM | 3.01 µM | 26.8 µM
CCC(=O)Nc1ccccc1C#C/C=C\C#Cc1ccccc1C(F)(F)F | 0.631 µM | > 11.1 µM | 2.02 µM | > 26.5 µM | 2.4 µM | > 20 µM | 5.27 µM | > 50 µM | 5.94 µM | > 50 µM | 6.04 µM | > 38.9 µM | 7.54 µM | > 50 µM
O=C1C(=O)c2ccccc2C(O)=C1CCCc1ccc(C2CCCCCC2)cc1 | 1.12 µM | 21.4 µM | 0.903 µM | 17.2 µM | 1.16 µM | > 100 µM | 0.649 µM | 15.8 µM | 4.6 µM | 27.8 µM | 3.46 µM | > 45.8 µM | 0.816 µM | 22.6 µM
O=c1c(Br)cc2c(-c3ccccc3)c3cc(Br)c(O)c(Br)c3oc-2c1Br | – | – | – | > 100 µM | – | > 100 µM | – | > 100 µM | – | 39.4 µM | – | > 100 µM | – | > 100 µM
CN(C)CC(C(=O)Cc1ccccc1)c1ccccc1 (stereo not drawn) | 2.54 µM | 5.57 µM | 1.07 µM | 2.49 µM | – | – | 12.2 µM | 30.5 µM | – | – | 1.11 µM | 4.91 µM | 1.74 µM | 3.89 µM
C[C@]12CC[C@H]3[C@@H](C[C@@H]4SC(Nc5ccccc5)=N[C@@]45CC(O)CC[C@]35C)[C@@H]1CCC2O (stereo partly drawn) | 2.51 µM | 5.64 µM | 1.68 µM | 3.12 µM | 1.6 µM | 27.1 µM | 2.03 µM | 5.04 µM | – | – | 2.41 µM | 7.59 µM | 2.19 µM | 5.89 µM
COc1cc(C2C3=C(COC3=O)Nc3c2ccc2c3CCCC2)cc2c1OCO2 (stereo not drawn) | 0.068 µM | 27.4 µM | 0.0356 µM | 0.412 µM | 0.0367 µM | > 100 µM | 0.0439 µM | 13.7 µM | 0.0357 µM | 3.97 µM | – | – | 81.5 µM | > 100 µM
O=[n+]1c2ccccc2n([O-])c2cc(Cl)ccc21 | – | – | 5.77 µM | 18.4 µM | 0.533 µM | 5 µM | 4 µM | 25 µM | 3.6 µM | 13.5 µM | 1.96 µM | 11.7 µM | 7.76 µM | 20.8 µM
CC(/C=C/c1ccccc1)=N\NC(N)=S | – | – | – | > 100 µM | – | > 100 µM | – | > 100 µM | – | > 100 µM | – | 49.1 µM | – | > 100 µM
CCCCN(CCCC)CCC(O)c1cc2c(Cl)cc(Cl)cc2c2cc(C(F)(F)F)ccc12 (stereo not drawn) | – | 30.2 µM | – | – | – | 29 µM | – | 30.6 µM | – | 34.9 µM | – | 28.9 µM | – | 30 µM
C/C=C/[C@H]1O[C@@H]2C(=C[C@H]1O)C(=O)O[C@H]2C | 37.8 µM | > 100 µM | 33.3 µM | > 78 µM | – | – | 16.4 µM | 44.2 µM | 2.19 µM | 27.4 µM | 7.34 µM | 25.5 µM | 7.59 µM | 24.2 µM
